Measured values taken from patent US20110165279A1, “SWEET POTATO TRYPSIN INHIBITOR AND METHODS FOR TREATING INFLAMMATION AND HYPERALGESIA” (Academia Sinica Office of Public Affairs (Technology …, priority 2010, published 2011).

How the values were obtained:
[1] = system: hind paw edema induced by λ-carrageenan in mice; test: λ-carrageenan-induced hind paw edema test in mice; format: in vivo, mouse; details: 10 mg/kg i.p., 3, 4 and 5 hours after Carr injection; p<0.01 or p<0.001
Experimental: Male ICR mice (18-25 g) were obtained from the BioLASCO Taiwan Co., Ltd. The animals were kept in plexiglass cages under a constant temperature of 22±1° C., relative humidity 55±5%, and a light regime of 12 hours dark/12 hour light for at least 2 weeks before the experiment. They were given food and water ad libitum. All experimental procedures were performed according to the NIH Guide for the Care and Use of Laboratory Animals. The placebo groups were given subcutaneous 0.1 ml/10 g saline using a bent blunted 27-gauge needle connected to a 1 ml syringe. All tests were conducted under the guidelines of the International Association for the Study of Pain [Zimmermann, M., Ethical guidelines for investigations of experimental pain in conscious animals. Pain. 1983, 16, 109-110].
Male ICR mice (eight per group), 18 g to 25 g, were fasted for 24 hours before the experiment with free access to water. […] Paw volume was measured immediately after Carr injection and at 1, 2, 3, 4 and 5 hours intervals after the administration of the edematogenic agent using a plethysmometer (model 7159, Ugo Basile, Varese, Italy). The degree of swelling induced was evaluated by the ratio a/b, where a is the volume of the right hind paw after Carr treatment, and b is the volume of the right hind paw before Carr treatment.

[2] = system: mouse hind footpad; test: Histological examination of mouse hind footpad after carrageenan (H&E, neutrophil counts); format: in vivo; details: biopsies 5 hours after Carr, IbTI 40 mg/kg, indomethacin 10 mg/kg
Experimental: For histological examination, biopsies of paws were taken 5 hours after Carr injection into the plantar side of right hind paws. The tissue slices were fixed in solution with 1.85% formaldehyde and 1% acetic acid for 1 week at room temperature, then dehydrated by graded ethanol and embedded in Paraffin (Sherwood Medical, St. Louis, Mo., USA). Sections (thickness 5 μm) were deparaffinized with xylene and stained with hematoxylin and eosin. All samples were observed and photographed with BH2 Olympus microscopy (Japan). Every 3-5 tissue slices were randomly chosen from control, Carr, Indo and IbTI-treated (40 mg/kg) groups. The numbers of neutrophils were counted in each scope (400×) and average counts from 5 scopes of each tissue slice were calculated.

In the case of `COc1ccc2c(c1)c(CC(=O)O)c(C)n2C(=O)c1ccc(Cl)cc1` [Indomethacin, indomethacin], the paw edema [1] was “significantly decreased paw edema”, the “histological appearance of hind footpad vs Carr only” value [2] was “significantly reduced the level of hemorrhage, edema and inflammatory cell infiltration” and the “neutrophil numbers in paw tissue vs Carr-treated group” value ([2]; p<0.01) was “significantly decreased the number of inflammatory neutrophil infiltration”.
